Test results: PubChem BioAssay AID256 (DTP/NCI, 2004)
“And” between values parts separate entries of the source, which are not always exact repeats. Identical values can stand only once. Inconclusive results and toxic doses are left out.

System: CD2F1 mice, L1210 leukemia ip, survival T/C
Assay: NCI In Vivo Anticancer Drug Screen. Data for tumor model L1210 Leukemia (intraperitoneal) in CD2F1 (CDF1) mice
Conditions: higher = longer survival
In short: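 Implant tumor; dose compound or vehicle; measure endpoint in both groups; report treated divided by control.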

[1] = endpoint: mean survival time, dose: 12.5 mg/kg/injection, schedule: Q01DX009 (ip), vehicle: saline
[2] = endpoint: mean survival time, dose: 25.0 mg/kg/injection, schedule: Q01DX009 (ip), vehicle: saline with Tween-80
[3] = endpoint: mean survival time, dose: 25.0 mg/kg/injection, schedule: Q01DX009 (ip), vehicle: saline
[4] = endpoint: mean survival time, dose: 50.0 mg/kg/injection, schedule: Q01DX009 (ip), vehicle: saline with Tween-80
[5] = endpoint: mean survival time, dose: 100.0 mg/kg/injection, schedule: Q01DX009 (ip), vehicle: saline with Tween-80
[6] = endpoint: mean survival time, dose: 100.0 mg/kg/injection, schedule: Q01DX001 (ip), vehicle: saline with Tween-80
[7] = endpoint: mean survival time, dose: 200.0 mg/kg/injection, schedule: Q01DX001 (ip), vehicle: saline with Tween-80
[8] = endpoint: mean survival time, dose: 400.0 mg/kg/injection, schedule: Q01DX001 (ip), vehicle: saline with Tween-80
[9] = endpoint: mean survival time, dose: 100.0 mg/kg/injection, schedule: Q04DX003 (ip), vehicle: saline with Tween-80
[10] = endpoint: mean survival time, dose: 200.0 mg/kg/injection, schedule: Q04DX003 (ip), vehicle: saline with Tween-80
[11] = endpoint: mean survival time, dose: 400.0 mg/kg/injection, schedule: Q04DX003 (ip), vehicle: saline with Tween-80
[12] = endpoint: mean survival time, dose: 200.0 mg/kg/injection, schedule: Q01DX009 (ip), vehicle: saline with Tween-80
[13] = endpoint: mean survival time, dose: 400.0 mg/kg/injection, schedule: Q01DX009 (ip), vehicle: saline with Tween-80

With `NC(=S)N/N=C/c1ccc(O)cn1` the T/C [1] was 124 % of control, the T/C (endpoint: mean survival time, dose: 12.5 mg/kg/injection, schedule: Q03HX024 (ip), vehicle: saline) was 153 % of control and 163 % of control and the T/C (endpoint: mean survival time, dose: 18.8 mg/kg/injection, schedule: Q01DX009 (ip), vehicle: saline with Tween-80) was 162 % of control. The T/C [2] was 155 % of control, the T/C [3] was 150 % of control and 170 % of control and the T/C (endpoint: mean survival time, dose: 25.0 mg/kg/injection, schedule: Q01DX009 (oral), vehicle: saline) was 94 % of control. The T/C (endpoint: mean survival time, dose: 25.0 mg/kg/injection, schedule: Q03HX024 (ip), vehicle: saline) was 168 % of control and 217 % of control, the T/C (endpoint: mean survival time, dose: 37.5 mg/kg/injection, schedule: Q01DX009 (ip), vehicle: saline with Tween-80) was 160 % of control and 166 % of control and the T/C [4] was 183 % of control. The T/C (endpoint: mean survival time, dose: 50.0 mg/kg/injection, schedule: Q01DX009 (ip), vehicle: saline) was 151 % of control and 154 % of control, the T/C (endpoint: mean survival time, dose: 50.0 mg/kg/injection, schedule: Q01DX009 (oral), vehicle: saline) was 95 % of control and the T/C (endpoint: mean survival time, dose: 50.0 mg/kg/injection, schedule: Q03HX024 (ip), vehicle: saline) was 162 % of control and 211 % of control. The T/C [5] was 102 % of control, the T/C (endpoint: mean survival time, dose: 100.0 mg/kg/injection, schedule: Q01DX009 (oral), vehicle: saline) was 103 % of control and the T/C (endpoint: mean survival time, dose: 150.0 mg/kg/injection, schedule: Q01DX009 (ip), vehicle: saline with Tween-80) was 103 % of control. The T/C (endpoint: mean survival time, dose: 200.0 mg/kg/injection, schedule: Q01DX009 (ip), vehicle: saline) was 115 % of control and 110 % of control, the T/C (endpoint: mean survival time, dose: 200.0 mg/kg/injection, schedule: Q01DX009 (oral), vehicle: saline) was 102 % of control and the T/C (endpoint: mean survival time, dose: 400.0 mg/kg/injection, schedule: Q01DX009 (ip), vehicle: saline) was 88 % of control and 92 % of control. For the same compound, the T/C (endpoint: mean survival time, dose: 400.0 mg/kg/injection, schedule: Q01DX009 (oral), vehicle: saline) was 114 % of control, the T/C (endpoint: median survival time, dose: 20.0 mg/kg/injection, schedule: Q03HX024 (ip), vehicle: saline) was 152 % of control and 566 % of control and the T/C (endpoint: median survival time, dose: 21.8 mg/kg/injection, schedule: Q03HX008 (ip), vehicle: suspension in saline) was 185 % of control. For the same compound, the T/C (endpoint: median survival time, dose: 22.5 mg/kg/injection, schedule: Q03HX024 (ip), vehicle: suspension in saline) was 214 % of control, the T/C (endpoint: median survival time, dose: 32.6 mg/kg/injection, schedule: Q03HX008 (ip), vehicle: suspension in saline) was 188 % of control and the T/C (endpoint: median survival time, dose: 40.0 mg/kg/injection, schedule: Q03HX024 (ip), vehicle: saline) was 210 % of control and 566 % of control. For the same compound, the T/C (endpoint: median survival time, dose: 45.0 mg/kg/injection, schedule: Q03HX024 (ip), vehicle: suspension in saline) was 238 % of control, the T/C (endpoint: median survival time, dose: 45.0 mg/kg/injection, schedule: Q04DX003 (ip), vehicle: suspension in saline) was 119 % of control and the T/C (endpoint: median survival time, dose: 48.6 mg/kg/injection, schedule: Q03HX008 (ip), vehicle: suspension in saline) was 232 % of control. For the same compound, the T/C (endpoint: median survival time, dose: 50.0 mg/kg/injection, schedule: Q03HX024 (ip), vehicle: saline) was 566 % of control, the T/C (endpoint: median survival time, dose: 60.0 mg/kg/injection, schedule: Q03HX024 (ip), vehicle: saline) was 566 % of control and the T/C (endpoint: median survival time, dose: 80.0 mg/kg/injection, schedule: Q03HX024 (ip), vehicle: saline) was 119 % of control. For the same compound, the T/C (endpoint: median survival time, dose: 90.0 mg/kg/injection, schedule: Q04DX003 (ip), vehicle: suspension in saline) was 122 % of control, the T/C (endpoint: median survival time, dose: 108.3 mg/kg/injection, schedule: Q03HX008 (ip), vehicle: suspension in saline) was 94 % of control and the T/C (endpoint: median survival time, dose: 161.6 mg/kg/injection, schedule: Q04DX003 (ip), vehicle: suspension in saline) was 152 % of control. For the same compound, the T/C (endpoint: median survival time, dose: 180.0 mg/kg/injection, schedule: Q03HX024 (ip), vehicle: suspension in saline) was 110 % of control, the T/C (endpoint: median survival time, dose: 241.2 mg/kg/injection, schedule: Q04DX003 (ip), vehicle: suspension in saline) was 156 % of control and the T/C (endpoint: median survival time, dose: 360.0 mg/kg/injection, schedule: Q04DX003 (ip), vehicle: suspension in saline) was 176 % of control and 211 % of control. For the same compound, the T/C (endpoint: median survival time, dose: 537.3 mg/kg/injection, schedule: Q04DX003 (ip), vehicle: suspension in saline) was 184 % of control and the T/C (endpoint: median survival time, dose: 720.0 mg/kg/injection, schedule: Q04DX003 (ip), vehicle: suspension in saline) was 122 % of control.
For `CCOC(=O)C(=O)Nc1ccc(Cl)cc1`, the T/C [6] was 94 % of control, the T/C [7] was 97 % of control and the T/C [8] was 95 % of control.
For `CCOc1ccc(OCC)c(NC(=O)Nc2cccc(Cl)c2)c1`, the T/C (endpoint: mean survival time, dose: 25.0 mg/kg/injection, schedule: Q04DX002 (ip), vehicle: saline with Tween-80) was 92 % of control, the T/C (endpoint: mean survival time, dose: 50.0 mg/kg/injection, schedule: Q04DX002 (ip), vehicle: saline with Tween-80) was 92 % of control and the T/C (endpoint: mean survival time, dose: 100.0 mg/kg/injection, schedule: Q04DX002 (ip), vehicle: saline with Tween-80) was 88 % of control.
`c1ccc(CNc2ccccn2)cc1` was tested, and the T/C [9] was 97 % of control, the T/C [10] was 97 % of control and the T/C [11] was 95 % of control.
For `O=NN1Cc2ccccc2C1=O`, the T/C [5] was 96 % of control, the T/C [12] was 94 % of control and the T/C [13] was 94 % of control.
For `COc1cccc(CN2CCN(N)CC2)c1`, the T/C (endpoint: mean survival time, dose: 12.5 mg/kg/injection, schedule: Q01DX009 (ip), vehicle: Klucel (hydroxypropylcellulose) (HPC)) was 98 % of control, the T/C (endpoint: mean survival time, dose: 25.0 mg/kg/injection, schedule: Q01DX009 (ip), vehicle: Klucel (hydroxypropylcellulose) (HPC)) was 97 % of control and the T/C (endpoint: mean survival time, dose: 50.0 mg/kg/injection, schedule: Q01DX009 (ip), vehicle: Klucel (hydroxypropylcellulose) (HPC)) was 97 % of control. The T/C (endpoint: mean survival time, dose: 100.0 mg/kg/injection, schedule: Q01DX009 (ip), vehicle: Klucel (hydroxypropylcellulose) (HPC)) was 92 % of control and the T/C (endpoint: mean survival time, dose: 200.0 mg/kg/injection, schedule: Q01DX009 (ip), vehicle: Klucel (hydroxypropylcellulose) (HPC)) was 97 % of control.
For `CCOP(=O)(NCCCSC)OCC`, the T/C (endpoint: mean survival time, dose: 5.0 mg/kg/injection, schedule: Q01DX009 (ip), vehicle: saline) was 96 % of control, the T/C (endpoint: mean survival time, dose: 10.0 mg/kg/injection, schedule: Q01DX009 (ip), vehicle: saline) was 97 % of control and the T/C (endpoint: mean survival time, dose: 20.0 mg/kg/injection, schedule: Q01DX009 (ip), vehicle: saline) was 88 % of control.
In the case of `CC(=O)OCc1cc(C(C)(C)C)c(O)c(C(C)(C)C)c1`, the T/C (endpoint: mean survival time, dose: 100.0 mg/kg/injection, schedule: Q04DX003 (ip), vehicle: Klucel (hydroxypropylcellulose) (HPC)) is reported as 101 % of control, the T/C (endpoint: mean survival time, dose: 200.0 mg/kg/injection, schedule: Q04DX003 (ip), vehicle: Klucel (hydroxypropylcellulose) (HPC)) is reported as 116 % of control and the T/C (endpoint: mean survival time, dose: 400.0 mg/kg/injection, schedule: Q04DX003 (ip), vehicle: Klucel (hydroxypropylcellulose) (HPC)) is reported as 115 % of control.
In the case of `CNC(=O)Nc1cc(OC)ccc1OC`, the T/C [6] is reported as 106 % of control, the T/C [7] is reported as 106 % of control and the T/C [8] is reported as 102 % of control.
With `CNC(=S)C#N` the T/C (endpoint: median survival time, dose: 6.25 mg/kg/injection, schedule: Q01DX005 (ip), vehicle: saline + Tween-80 + alcohol) was 100 % of control, the T/C (endpoint: median survival time, dose: 12.5 mg/kg/injection, schedule: Q01DX005 (ip), vehicle: saline + Tween-80 + alcohol) was 97 % of control and the T/C (endpoint: median survival time, dose: 25.0 mg/kg/injection, schedule: Q01DX005 (ip), vehicle: saline + Tween-80 + alcohol) was 98 % of control and 102 % of control. The T/C (endpoint: median survival time, dose: 50.0 mg/kg/injection, schedule: Q01DX005 (ip), vehicle: saline + Tween-80 + alcohol) was 87 % of control and 112 % of control.
In the case of `CC(=O)OCC1OC(n2ncc3c(Nc4ccccc4)ncnc32)C(OC(C)=O)C1OC(C)=O` (configuration not stated), the T/C [2] is reported as 93 % of control, the T/C [4] is reported as 100 % of control and the T/C [5] is reported as 87 % of control. For the same compound, the T/C [12] was 100 % of control and the T/C [13] was 100 % of control.
With `NCCN` the T/C [6] was 106 % of control and the T/C [8] was 97 % of control.
For `[NH-]CC[NH-].[NH-]CC[NH-].[NH-]CC[NH-].[Ni]`, the T/C (endpoint: mean survival time, dose: 6.25 mg/kg/injection, schedule: Q01DX009 (ip), vehicle: saline) was 103 % of control, the T/C (endpoint: mean survival time, dose: 6.25 mg/kg/injection, schedule: Q04DX003 (ip), vehicle: saline) was 97 % of control and the T/C [1] was 101 % of control. The T/C (endpoint: mean survival time, dose: 12.5 mg/kg/injection, schedule: Q04DX003 (ip), vehicle: saline) was 93 % of control, the T/C [3] was 92 % of control and the T/C (endpoint: mean survival time, dose: 25.0 mg/kg/injection, schedule: Q04DX003 (ip), vehicle: saline) was 106 % of control.
With `Cc1cc(=O)[nH]cn1` the T/C (endpoint: mean survival time, dose: 100.0 mg/kg/injection, schedule: Q04DX002 (ip), vehicle: saline) was 105 % of control, the T/C (endpoint: mean survival time, dose: 200.0 mg/kg/injection, schedule: Q04DX002 (ip), vehicle: saline) was 105 % of control and the T/C (endpoint: mean survival time, dose: 400.0 mg/kg/injection, schedule: Q04DX002 (ip), vehicle: saline) was 97 % of control.
In the case of `CCCCOB(OCCCC)OCCCC`, the T/C [9] is reported as 98 % of control, the T/C [10] is reported as 93 % of control and the T/C [11] is reported as 103 % of control.
